Article PMC8800018, “Discovery of novel selective PI3Kγ inhibitors through combining machine learning-based virtual screening with multiple protein structures and bio-evaluation” (Journal of Advanced Research, 2021)
Read-outs that look alike come from different tables or passages of the source.

Experiments:
[1] = target: PI3Kγ (Homo sapiens, UniProt P48736); experiment: ADP-Glo cell-free PI3K kinase activity assay; conditions: compounds 10 μM, initial screening, Fig. 3A
Procedure: (§6) The PI3K inhibitory activities of these pro-hits were all determined by ADP-Glo assay (Promega) [39]. […] 2.5 μL ATP/substrate mixture was added into the wells to initiate kinase reactions and incubated at room temperature for 1 h. Then, the reactions were stopped by addition of 5 μL ADP-Glo reagent and incubation for 120 min at room temperature. Before reading the luminescence signals of each well, 10 μL kinase detection buffer was added and incubated for 30 min at room temperature.

[2] = test system: AKT phosphorylation (Thr308, Ser473) in RPMI-8226 cells; experiment: Western Blot of PI3K/AKT signaling; type: cell-based, human
Procedure: (§1) K562 and RPMI-8226 cells were cultured in 6-well plates with 1 × 10^6 cells per well and then treated with various concentrations of JN-KI3: 0, 2.5, 5, 10, and 20 μM. After 24 h, the cells of each well were collected and washed by PBS 3 times. The sedimentary cells were then incubated in an ice bath with 80 μL RIPA lysis buffer (Beyotime) for 20 min and then centrifuged at 12,000 rpm for 20 min. The supernatant was collected and its total concentration of protein was quantified using the BCA protein assay kit (Biosharp). Loading buffer (5 ×) was added to all protein samples prepared for Western Blot assays and boiled at 100℃ for 5 min.
(§2) The inhibitory situation of PI3K/AKT (Protein kinase B) signaling pathway was then determined by Western Blot assays. The SDS-polyacrylamide gel electrophoresis (PAGE) was used to separate the proteins. All protein samples and Protein Marker (Proteintech) were loaded onto an acrylamide gel and ran for 30 min at 80 V within the staking gel and for 1 h at 100 V with the separating gel. Then, the protein was electro-transferred onto an NC membrane at 100 V for 1 h. After that, the membrane was blocked in 5% skim milk diluted in TBST (1 ×) for 2 h and then the membrane was incubated with relevant primary antibody overnight at 4℃: Phospho-AKT (Thr308) (1 : 1000, cat# 13038 T; Cell Signaling Technology), Phospho-AKT (Ser473) (1: 1000, cat# 4060 T; Cell Signaling Technology), AKT (pan) (1: 1000, cat# 4691 T; Cell Signaling Technology), caspase-3 (1: 1000, cat# sc-56053; Santa Cruz Biotechnology), PARP (1: 1000, cat# 9542S; Cell Signaling Technology). GAPDH (1: 5000, cat#60004–1-Ig; Santa Cruz Biotechnology), After 10-min washing in TBST (1 ×) for 3 times, the membrane was incubated with relevant secondary antibody at room temperature on a shaker for 1 h. And the membrane was washed for 4 times in TBST again before being imaged.

[3] = test system: AKT phosphorylation (Thr308, Ser473) in K562 cells; experiment: Western Blot of PI3K/AKT signaling; type: cell-based, human
Procedure: as §1, §2

[4] = test system: hematologic tumor cell lines (HL-60, Jurkat, CCRF-CEM, K562, OPM2, OCI-My5, LP-1, RPMI-8226, U937); experiment: MTT cell proliferation assay, hematologic tumor cell lines, gradient of concentrations; type: cell-based, human; conditions: Fig. 3D
Description: (§3) The human cancer lines, MDA-MB-231, Patu8988, HepG2, A2780, LOVO, H1299, A549, HCT-8, SW480, 3AO, and MGC-803 were saved by the lab of Dr. Jian Jin, Jiangnan University. MCF-7 was purchased from the American Type Culture Collection (ATCC). Human malignant blood tumor cells, HL-60, U266, OPM2, OCI-My5, RPMI-8226, NCI-H929, Jurkat, LP-1, CCRF-CEM, K562, and U937, were provided by Dr. Xinliang Mao, Soochow University. MDA-MB-231, Patu8988, HepG2, A2780, LOVO, H1299, A549, HCT-8, SW480, 3AO, MGC-803, and MCF-7 were cultured in Dulbecco’s Modified Eagle Medium (DMEM, Gibco); U266, RPMI-8226, OPM2, OCI-My5, NCI-H929 and LP-1 were cultured in Iscove’s Modified Dulbecco’s Medium (IMDM. Gibco). The rest of cell lines were cultured in RPMI-1640 medium (Gibco). All mediums were supplemented with 10% fetal bovine serum (FBS, Gibco), 100 μg/mL penicillin and streptomycin, and all cells were maintained in a cell incubator with 5% CO2 at 37℃.
All cells were incubated in 96-well culture plates with 100 μL medium in each well. […] The viability of the cancer cells was evaluated by Thiazolyl Blue (MTT) assay. […] After incubating the plate overnight, the absorbance of each well was measured at 550 nm by a microplate reader. […]

[5] = test system: K562 cells; experiment: Annexin V-FITC/PI flow cytometry apoptosis assay; type: cell-based, human; conditions: 24 h
Procedure: (§4) After being treated with JN-KI3 for 24 h, K562 and RPMI-8226 were stained with Annexin V-FITC/PI detection kit (Beyotime) and the apoptosis of the cells were detected using a flow cytometer (FACSCalibur, BD) following the instructions.

[6] = test system: RPMI-8226 cells; experiment: Annexin V-FITC/PI flow cytometry apoptosis assay; type: cell-based, human; conditions: RPMI-8226, 10 μM, 24 h
Procedure: as §4

[7] = target: PI3Kδ (Homo sapiens, UniProt O00329); experiment: ADP-Glo cell-free PI3K kinase activity assay
PI3Kδ, sequence (O00329 whole entry): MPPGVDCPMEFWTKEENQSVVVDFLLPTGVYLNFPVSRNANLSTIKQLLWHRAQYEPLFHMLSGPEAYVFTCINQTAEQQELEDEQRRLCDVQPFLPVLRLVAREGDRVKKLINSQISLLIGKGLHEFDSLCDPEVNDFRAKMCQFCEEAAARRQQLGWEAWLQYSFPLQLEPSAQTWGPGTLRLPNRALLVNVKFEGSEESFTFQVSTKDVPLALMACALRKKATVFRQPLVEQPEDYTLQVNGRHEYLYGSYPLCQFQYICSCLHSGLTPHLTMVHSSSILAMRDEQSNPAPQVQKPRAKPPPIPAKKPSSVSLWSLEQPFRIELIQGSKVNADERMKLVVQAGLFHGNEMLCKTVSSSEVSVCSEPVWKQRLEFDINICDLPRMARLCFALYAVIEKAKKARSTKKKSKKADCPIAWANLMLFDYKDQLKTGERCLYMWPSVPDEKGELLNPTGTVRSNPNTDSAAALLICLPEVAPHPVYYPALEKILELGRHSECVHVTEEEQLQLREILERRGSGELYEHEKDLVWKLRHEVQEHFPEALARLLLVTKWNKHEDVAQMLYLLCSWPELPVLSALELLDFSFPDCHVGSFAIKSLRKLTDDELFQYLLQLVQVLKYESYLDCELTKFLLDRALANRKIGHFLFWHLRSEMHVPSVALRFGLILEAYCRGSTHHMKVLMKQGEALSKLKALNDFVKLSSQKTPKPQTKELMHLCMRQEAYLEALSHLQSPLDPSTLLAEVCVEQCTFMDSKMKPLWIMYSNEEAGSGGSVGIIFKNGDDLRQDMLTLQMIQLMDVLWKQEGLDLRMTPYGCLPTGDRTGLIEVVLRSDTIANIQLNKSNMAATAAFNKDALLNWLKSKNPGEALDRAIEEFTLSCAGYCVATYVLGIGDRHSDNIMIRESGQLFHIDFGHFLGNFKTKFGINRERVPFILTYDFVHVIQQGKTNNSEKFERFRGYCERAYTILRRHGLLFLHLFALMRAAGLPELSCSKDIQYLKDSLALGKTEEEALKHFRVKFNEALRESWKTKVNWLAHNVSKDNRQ
PI3Kδ, sequence (P27986 whole entry partner): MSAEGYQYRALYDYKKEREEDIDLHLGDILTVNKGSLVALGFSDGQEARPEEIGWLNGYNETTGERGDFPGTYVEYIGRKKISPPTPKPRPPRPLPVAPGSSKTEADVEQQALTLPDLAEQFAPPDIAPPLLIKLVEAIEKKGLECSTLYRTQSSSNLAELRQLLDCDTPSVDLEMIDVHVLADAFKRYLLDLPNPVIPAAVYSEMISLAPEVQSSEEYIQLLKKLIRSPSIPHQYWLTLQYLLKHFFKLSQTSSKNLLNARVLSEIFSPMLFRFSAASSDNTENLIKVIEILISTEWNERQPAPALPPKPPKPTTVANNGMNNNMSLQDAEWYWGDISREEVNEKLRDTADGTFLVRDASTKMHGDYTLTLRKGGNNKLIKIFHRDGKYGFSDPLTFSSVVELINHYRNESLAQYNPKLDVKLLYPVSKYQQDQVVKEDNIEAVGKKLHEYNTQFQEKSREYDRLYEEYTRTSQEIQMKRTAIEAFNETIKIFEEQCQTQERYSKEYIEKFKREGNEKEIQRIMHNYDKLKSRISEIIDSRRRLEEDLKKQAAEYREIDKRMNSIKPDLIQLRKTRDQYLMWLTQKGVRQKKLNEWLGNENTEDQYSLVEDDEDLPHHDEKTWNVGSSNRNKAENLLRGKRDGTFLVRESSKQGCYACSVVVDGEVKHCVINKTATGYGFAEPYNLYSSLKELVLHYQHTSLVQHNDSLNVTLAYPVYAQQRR
Procedure: as §6

[8] = target: PI3Kβ (Homo sapiens, UniProt P42338); experiment: ADP-Glo cell-free PI3K kinase activity assay
PI3Kβ, sequence (P42338 whole entry): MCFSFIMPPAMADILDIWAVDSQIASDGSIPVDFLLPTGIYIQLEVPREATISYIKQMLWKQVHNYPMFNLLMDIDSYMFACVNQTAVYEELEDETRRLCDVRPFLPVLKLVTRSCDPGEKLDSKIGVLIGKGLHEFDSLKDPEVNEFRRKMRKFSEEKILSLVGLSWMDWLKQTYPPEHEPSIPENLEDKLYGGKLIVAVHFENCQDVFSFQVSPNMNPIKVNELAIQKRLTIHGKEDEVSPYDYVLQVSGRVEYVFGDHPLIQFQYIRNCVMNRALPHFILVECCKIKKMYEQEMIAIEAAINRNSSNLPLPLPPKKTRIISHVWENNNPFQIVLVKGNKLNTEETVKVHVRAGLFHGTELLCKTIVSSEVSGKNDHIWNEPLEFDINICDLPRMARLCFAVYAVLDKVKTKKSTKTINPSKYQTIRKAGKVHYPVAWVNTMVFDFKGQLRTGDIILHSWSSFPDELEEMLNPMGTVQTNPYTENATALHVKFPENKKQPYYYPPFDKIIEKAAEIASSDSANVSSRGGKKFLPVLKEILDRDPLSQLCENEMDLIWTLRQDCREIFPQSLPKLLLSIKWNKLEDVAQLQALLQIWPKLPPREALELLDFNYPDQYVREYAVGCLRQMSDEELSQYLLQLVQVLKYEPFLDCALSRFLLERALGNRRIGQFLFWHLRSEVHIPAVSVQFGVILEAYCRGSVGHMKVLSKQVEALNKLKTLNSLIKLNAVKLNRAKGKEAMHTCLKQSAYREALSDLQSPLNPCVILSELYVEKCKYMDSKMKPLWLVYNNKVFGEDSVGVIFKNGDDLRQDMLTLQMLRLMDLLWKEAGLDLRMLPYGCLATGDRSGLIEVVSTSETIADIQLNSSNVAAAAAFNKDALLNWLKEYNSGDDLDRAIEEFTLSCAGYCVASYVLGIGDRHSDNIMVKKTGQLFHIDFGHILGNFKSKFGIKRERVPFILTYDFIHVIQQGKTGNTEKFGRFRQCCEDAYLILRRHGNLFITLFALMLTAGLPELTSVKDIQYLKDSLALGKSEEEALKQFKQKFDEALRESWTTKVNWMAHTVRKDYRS
PI3Kβ, sequence (P27986 whole entry partner): as the sequence (P27986 whole entry partner) above
Procedure: as §6

[9] = target: PI3Kα (Homo sapiens, UniProt P42336); experiment: ADP-Glo cell-free PI3K kinase activity assay
PI3Kα, sequence (P42336 whole entry): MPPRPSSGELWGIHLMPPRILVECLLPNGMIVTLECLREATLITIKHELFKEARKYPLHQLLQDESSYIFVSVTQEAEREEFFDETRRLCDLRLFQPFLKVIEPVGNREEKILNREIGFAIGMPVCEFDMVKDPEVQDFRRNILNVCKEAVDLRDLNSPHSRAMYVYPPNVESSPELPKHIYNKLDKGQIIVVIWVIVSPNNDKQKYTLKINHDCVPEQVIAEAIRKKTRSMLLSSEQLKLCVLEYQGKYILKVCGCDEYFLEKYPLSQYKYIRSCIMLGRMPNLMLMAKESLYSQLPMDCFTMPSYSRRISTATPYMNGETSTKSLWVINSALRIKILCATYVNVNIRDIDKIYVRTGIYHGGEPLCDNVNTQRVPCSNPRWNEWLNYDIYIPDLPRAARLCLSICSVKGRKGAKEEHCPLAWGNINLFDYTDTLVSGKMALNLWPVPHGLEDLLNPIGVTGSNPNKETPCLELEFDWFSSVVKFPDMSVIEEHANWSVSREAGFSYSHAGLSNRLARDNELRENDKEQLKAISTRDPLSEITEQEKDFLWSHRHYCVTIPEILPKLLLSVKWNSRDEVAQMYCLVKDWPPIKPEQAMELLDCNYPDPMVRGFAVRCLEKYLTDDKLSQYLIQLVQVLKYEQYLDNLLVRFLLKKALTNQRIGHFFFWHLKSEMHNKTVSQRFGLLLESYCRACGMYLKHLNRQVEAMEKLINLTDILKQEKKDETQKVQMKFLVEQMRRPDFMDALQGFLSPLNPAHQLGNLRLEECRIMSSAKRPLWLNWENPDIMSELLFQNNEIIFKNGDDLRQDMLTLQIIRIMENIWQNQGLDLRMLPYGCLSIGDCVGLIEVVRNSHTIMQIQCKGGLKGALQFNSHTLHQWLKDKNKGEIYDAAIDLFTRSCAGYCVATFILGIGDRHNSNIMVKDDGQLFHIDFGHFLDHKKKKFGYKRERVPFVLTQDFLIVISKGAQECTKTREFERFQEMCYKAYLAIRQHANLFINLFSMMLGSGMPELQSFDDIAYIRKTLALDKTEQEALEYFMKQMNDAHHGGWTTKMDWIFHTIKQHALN
PI3Kα, sequence (P27986 whole entry partner): as the sequence (P27986 whole entry partner) above
Procedure: as §6

[10] = test system: PARP and caspase-3 cleavage in RPMI-8226 cells; experiment: Western Blot of apoptosis biomarkers; type: cell-based, human
Procedure: as §1, §2

[11] = test system: PARP and caspase-3 cleavage in K562 cells; experiment: Western Blot of apoptosis biomarkers; type: cell-based, human
Procedure: as §1, §2

[12] = test system: U937 cells; experiment: MTT cell proliferation assay; type: cell-based, human; conditions: 72 h, Fig. 3C, compared with IPI-145
Description: as §3
(§5) All cells were incubated in 96-well culture plates with 100 μL medium in each well. The concentration of solid cells (MDA-MB-231, MCF-7, Patu8988, HepG2, A2780, 3AO, LOVO, HCT-8, SW480, A549, H1299, and MGC-803) was 3,000/well and the concentration of suspension cells (HL-60, U266, OPM2, OCI-My5, RPMI-8226, NCI-H929, Jurkat, LP-1, CCRF-CEM, K562, and U937) was 7,500/well. […] The viability of the cancer cells was evaluated by Thiazolyl Blue (MTT) assay. 10 μL of 5 mg/mL MTT was added to each well and the plate was incubated at 37℃ for 4 h. Then, 100 μL MTT buffer was added to each well. After incubating the plate overnight, the absorbance of each well was measured at 550 nm by a microplate reader. All data were normalized to control groups (5 μL DMSO) and converted into the percent of living cells. All results were represented as the mean and standard deviation (SD) of the three independent measurements.

[13] = test system: K562 cells; experiment: MTT cell proliferation assay; type: cell-based, human
Description: as §3, §5

[14] = test system: RPMI-8226 cells; experiment: MTT cell proliferation assay; type: cell-based, human; conditions: 72 h, Fig. 3C, compared with IPI-145
Description: as §3, §5

PI3Kγ, sequence (P48736 whole entry): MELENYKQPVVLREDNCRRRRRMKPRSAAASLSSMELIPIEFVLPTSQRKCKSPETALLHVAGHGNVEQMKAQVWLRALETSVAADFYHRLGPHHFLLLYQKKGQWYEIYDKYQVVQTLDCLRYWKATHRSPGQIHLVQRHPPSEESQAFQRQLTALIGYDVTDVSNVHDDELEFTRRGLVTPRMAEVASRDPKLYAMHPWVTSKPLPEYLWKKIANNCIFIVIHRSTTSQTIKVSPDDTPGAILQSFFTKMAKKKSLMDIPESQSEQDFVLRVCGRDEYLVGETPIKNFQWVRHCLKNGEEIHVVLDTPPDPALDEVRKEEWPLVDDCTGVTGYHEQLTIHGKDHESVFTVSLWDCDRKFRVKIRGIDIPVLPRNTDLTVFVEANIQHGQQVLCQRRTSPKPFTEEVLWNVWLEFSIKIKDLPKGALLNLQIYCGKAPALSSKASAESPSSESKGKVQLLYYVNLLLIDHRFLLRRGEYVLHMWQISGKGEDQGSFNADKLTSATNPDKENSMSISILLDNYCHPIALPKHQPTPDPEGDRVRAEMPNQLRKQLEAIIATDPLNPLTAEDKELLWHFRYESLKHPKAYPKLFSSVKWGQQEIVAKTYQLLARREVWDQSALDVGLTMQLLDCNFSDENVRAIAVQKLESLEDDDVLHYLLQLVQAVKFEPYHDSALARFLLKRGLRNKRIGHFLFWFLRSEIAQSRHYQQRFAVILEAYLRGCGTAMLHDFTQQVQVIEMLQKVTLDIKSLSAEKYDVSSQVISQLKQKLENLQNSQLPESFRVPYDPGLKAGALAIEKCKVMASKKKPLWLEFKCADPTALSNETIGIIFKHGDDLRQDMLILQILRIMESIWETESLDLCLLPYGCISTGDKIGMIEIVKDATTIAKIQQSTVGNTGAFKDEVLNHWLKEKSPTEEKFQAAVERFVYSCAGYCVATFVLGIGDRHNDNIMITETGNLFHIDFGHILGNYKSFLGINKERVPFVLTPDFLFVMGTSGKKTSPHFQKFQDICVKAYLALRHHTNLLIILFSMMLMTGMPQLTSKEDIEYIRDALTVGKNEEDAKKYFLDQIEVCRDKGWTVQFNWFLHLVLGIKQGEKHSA

C[C@H](Nc1ncnc2nc[nH]c12)c1cc2cccc(Cl)c2c(=O)n1-c1ccccc1 [IPI-145]
PI3Kγ inhibitory percent [1]: strongest inhibitory activity

CC(=O)c1c(C)n(-c2ccc(C)cc2)c2ccc(OCC(O)CNCc3ccc(Cl)cc3)cc12 (centres unmarked) [JN-KI3]
phosphorylation level of AKT at both sites, time course ([2]; RPMI-8226, 20 μM, 0 to 24 h): significantly inhibited
t-AKT, time course ([2]; RPMI-8226, 20 μM, 0 to 24 h): not markedly affected
AKT phosphorylation at Thr308 and Ser473 ([2]; RPMI-8226, increasing concentration (2.5-20 μM), 24 h, inhibition even at 2.5 μM): markedly decreased
expression of total AKT (t-AKT) ([2]; RPMI-8226, increasing concentration, 24 h): not affected
phosphorylation level of AKT at both sites, time course ([3]; K562, 20 μM, 0 to 24 h): significantly inhibited
t-AKT, time course ([3]; K562, 20 μM, 0 to 24 h): not markedly affected
AKT phosphorylation at Thr308 and Ser473 ([3]; K562, increasing concentration (2.5-20 μM), 24 h, inhibition even at 2.5 μM): markedly decreased
expression of total AKT (t-AKT) ([3]; K562, increasing concentration, 24 h): not affected
proliferation of hematologic tumor cell lines [4]: decreased in a concentration-dependent manner
cells occurring apoptosis ([5]; K562, 2.5 μM): 41.2%
cells occurring apoptosis ([5]; K562, 5 μM): 47.5%
cells occurring apoptosis ([5]; K562, 10 μM): 65.7%
cells occurring apoptosis [6]: about 20.43%
IC50 ([7]; read-out: Cell-free inhibitory IC50 PI3Kδ, ATP 25 μM, average of triple tests): > 20 µM
IC50 ([7]; read-out: IC50 PI3Kδ, Table 4): > 20 µM
IC50 ([8]; read-out: Cell-free inhibitory IC50 PI3Kβ, ATP 25 μM, average of triple tests): > 20 µM
IC50 ([8]; read-out: IC50 PI3Kβ, Table 4): > 20 µM
IC50 ([9]; read-out: Cell-free inhibitory IC50 PI3Kα, ATP 25 μM, average of triple tests): > 20 µM
IC50 ([9]; read-out: IC50 PI3Kα, Table 4): > 20 µM
cleavage level of Caspase-3 and PARP, time course ([10]; RPMI-8226, 20 μM, after 6 h): significantly increased
cleavage levels of PARP and caspase-3 ([10]; RPMI-8226, increasing concentrations, 24 h): obviously increased
cleavage level of Caspase-3 and PARP, time course ([11]; K562, 20 μM, after 6 h): significantly increased
cleavage levels of PARP and caspase-3 ([11]; K562, increasing concentrations, 24 h): obviously increased
anti-proliferative activity, U937 [12]: stronger than IPI-145
anti-proliferative activity, K562 ([13]; 72 h, MTT, Fig. 3B/3C): stronger than IPI-145
sensitivity of K562 proliferation ([13]; gradient of concentrations, low concentration, Fig. 3D): significant sensitivity
anti-proliferative activity, RPMI-8226 [14]: stronger than IPI-145

O=c1cc(N2CCOCC2)oc2c(-c3ccccc3)cccc12 [LY294002, reference compound]
IC50 [7]: 0.78 µM
